Test results as given in publication PMC9120017, “Inhibition mechanism of the chloride channel TMEM16A by the pore blocker 1PBC” (Nature Communications, 2022).
Like-named read-outs stand apart in the source and are kept apart here.

Target: T1, mouse TMEM16A mutant V511A (Mus musculus, UniProt Q8BHY3, V511A)
T1 construct: expressed in transfected cells; host or cells: HEK293T
T1 sequence (Q8BHY3 1-960 V511A): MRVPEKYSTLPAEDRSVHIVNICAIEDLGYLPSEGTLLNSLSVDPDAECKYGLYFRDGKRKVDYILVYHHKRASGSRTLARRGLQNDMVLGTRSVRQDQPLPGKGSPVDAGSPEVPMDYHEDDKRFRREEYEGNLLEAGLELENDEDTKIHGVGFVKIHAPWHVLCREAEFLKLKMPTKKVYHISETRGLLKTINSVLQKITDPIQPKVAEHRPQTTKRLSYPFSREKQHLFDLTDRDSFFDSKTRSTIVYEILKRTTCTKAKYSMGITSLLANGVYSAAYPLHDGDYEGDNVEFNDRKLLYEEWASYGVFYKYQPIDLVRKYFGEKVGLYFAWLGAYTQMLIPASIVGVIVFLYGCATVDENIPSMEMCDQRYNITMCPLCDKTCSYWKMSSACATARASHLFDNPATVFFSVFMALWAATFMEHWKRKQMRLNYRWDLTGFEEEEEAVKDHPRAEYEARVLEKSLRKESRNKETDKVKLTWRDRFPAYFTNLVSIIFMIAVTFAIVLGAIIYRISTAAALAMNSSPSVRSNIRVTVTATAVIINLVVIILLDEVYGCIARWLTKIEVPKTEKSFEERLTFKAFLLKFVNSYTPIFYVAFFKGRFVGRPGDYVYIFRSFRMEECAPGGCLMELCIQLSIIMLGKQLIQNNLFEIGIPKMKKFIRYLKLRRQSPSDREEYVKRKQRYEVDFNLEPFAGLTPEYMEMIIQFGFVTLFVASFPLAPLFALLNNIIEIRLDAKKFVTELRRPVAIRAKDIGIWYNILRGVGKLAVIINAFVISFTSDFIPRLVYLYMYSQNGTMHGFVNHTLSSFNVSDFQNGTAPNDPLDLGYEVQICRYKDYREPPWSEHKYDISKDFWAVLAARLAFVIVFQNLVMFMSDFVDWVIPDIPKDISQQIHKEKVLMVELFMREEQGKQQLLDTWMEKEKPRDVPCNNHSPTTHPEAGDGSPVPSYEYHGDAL
Assay: Inside-out patch recording of 1PBC block, mutant V511A
Assay type: cell-based
Conditions: for remaining activity at 3 µM: 1PBC 3; for remaining activity at 3 µM / remaining activity at 10 µM / remaining activity at 30 µM / remaining activity at 100 µM: read-out: fraction of unblocked current; for remaining activity at 10 µM: 1PBC 10; for remaining activity at 30 µM: 1PBC 30; for remaining activity at 100 µM: 1PBC 100
Experimental: HEK293T cells (ATCC CRL-1573) were maintained in Dulbecco’s modified Eagle’s medium (DMEM; Sigma-Aldrich) supplemented with 10 U ml^−1 penicillin, 0.1 mg ml^−1 streptomycin (Sigma-Aldrich), 2 mM L-glutamine (Sigma-Aldrich), and 10% FBS (Sigma-Aldrich) in a humidified atmosphere containing 5% CO2 at 37 °C. HEK293S GnTI^− cells (ATCC CRL-3022) were maintained in HyClone HyCell TransFx-H medium (GE Healthcare) supplemented with 10 U ml^−1 penicillin, 0.1 mg ml^−1 streptomycin, 4 mM L-glutamine, 0.15% poloxamer 188 (Sigma-Aldrich), and 1% FBS in an atmosphere containing 5% CO2 at 185 rpm at 37 °C. The ac splice variant of mouse TMEM16A (UniProt ID: Q8BHY3), mouse TMEM16B (UniProt ID: Q8CFW1), or mouse TMEM16F (UniProt ID: Q6P9J9) bearing a 3C cleavage site, a Venus YFP, a Myc tag, and a Streptavidin-binding peptide (SBP) downstream of the open reading frame in a modified pcDNA3.1 vector (Invitrogen) were used as described previously[21],[31]. Mutations were introduced using a modified QuikChange method[58] and were verified by sequencing.
HEK293T cells were transfected with 3–4 μg DNA per 6 cm Petri dish using the calcium phosphate co-precipitation method and were used within 24–96 h after transfection. Recordings were performed on inside-out patches excised from HEK293T cells expressing the construct of interest. Patch pipettes were pulled from borosilicate glass capillaries (O.D. 1.5 mm, I.D. 0.86 mm, Sutter Instrument) and were fire-polished with a microforge (Narishige) before use. Pipette resistance was typically 3–8 MΩ when filled with the recording solutions detailed below. Seal resistance was typically 4 GΩ or higher. Voltage-clamp recordings were made using Axopatch 200B, Digidata 1550, and Clampex 10.7 (Molecular Devices). Analog signals were filtered with the in-built 4-pole Bessel filter at 10 kHz and were digitized at 20 kHz. Solution exchange was achieved using a gravity-fed system through a theta glass pipette mounted on an ultra-fast piezo-driven stepper (Siskiyou). […] All recordings were performed at 20 °C.
A symmetrical ionic condition was used throughout. Stock solution with Ca^2+-EGTA contained 150 mM NaCl, 5.99 mM Ca(OH)2, 5 mM EGTA, and 10 mM HEPES at pH 7.40. Stock solution with EGTA contained 150 mM NaCl, 5 mM EGTA, and 10 mM HEPES at pH 7.40. Free Ca^2+ concentrations were adjusted by mixing the stock solutions at the required ratios calculated using the WEBMAXC program (http://web.stanford.edu/~cpatton/webmaxcS.htm). Patch pipettes were filled with the stock solution with Ca^2+-EGTA, which has a free Ca^2+ concentration of 1 mM. 1PBC (ChemBridge) stock was reconstituted in anhydrous DMSO (Sigma-Aldrich) at 100 mM and stored at −20 °C. Working solutions with 1PBC were prepared by serial dilution. Unless otherwise stated, experiments were performed at a saturating Ca^2+ concentration as shown in Supplementary Table 1 and the primary data were corrected for current rundown as described previously[21],[25].
Concentration-response relations, obtained from the ratio of the I-V plots before and after the application of the blocker, were fitted to the Hill equation,1 I/Imax=1/1+IC50/[blocker]^h where I/Imax is the normalized current responses, IC50 defines the concentration at which inhibition is at its half-maximum, and h is the Hill coefficient.

## N#Cc1c(C(F)(F)F)cc(O)n2c1nc1ccccc12 [1PBC]
0 mV, 2 µM Ca2+
  IC50: 20.8 µM
0 mV
  remaining activity at 3 µM: 87.8%
  remaining activity at 10 µM: 68%
  remaining activity at 30 µM: 40.9%
  remaining activity at 100 µM: 16.5%
20 mV
  remaining activity at 3 µM: 84.4%
  remaining activity at 10 µM: 62.6%
  remaining activity at 30 µM: 35.2%
  remaining activity at 100 µM: 13.8%
40 mV
  remaining activity at 3 µM: 80.2%
  remaining activity at 10 µM: 56.1%
  remaining activity at 30 µM: 30.5%
  remaining activity at 100 µM: 11.5%
60 mV
  remaining activity at 3 µM: 77.1%
  remaining activity at 10 µM: 50.6%
  remaining activity at 30 µM: 26.5%
  remaining activity at 100 µM: 10.1%
80 mV
  remaining activity at 3 µM: 73.1%
  remaining activity at 10 µM: 45.9%
  remaining activity at 30 µM: 24%
  remaining activity at 100 µM: 9.26%
  log-fold IC50 (change of mutant vs WT): 0.5163
100 mV
  remaining activity at 3 µM: 70.9%
  remaining activity at 10 µM: 43.5%
  remaining activity at 30 µM: 22.5%
  remaining activity at 100 µM: 9.4%
120 mV
  remaining activity at 3 µM: 69.6%
  remaining activity at 10 µM: 41.9%
  remaining activity at 30 µM: 22.7%
  remaining activity at 100 µM: 9.52%
140 mV
  remaining activity at 3 µM: 70.4%
  remaining activity at 10 µM: 42.2%
  remaining activity at 30 µM: 23.4%
  remaining activity at 100 µM: 9.88%
-20 mV
  remaining activity at 3 µM: 91.2%
  remaining activity at 10 µM: 73.3%
  remaining activity at 30 µM: 46.5%
  remaining activity at 100 µM: 19.3%
-40 mV
  remaining activity at 3 µM: 93%
  remaining activity at 10 µM: 78.6%
  remaining activity at 30 µM: 52.4%
  remaining activity at 100 µM: 23.1%
-60 mV
  remaining activity at 3 µM: 94.7%
  remaining activity at 10 µM: 82.2%
  remaining activity at 30 µM: 58.4%
  remaining activity at 100 µM: 28.5%
-80 mV
  remaining activity at 3 µM: 95.6%
  remaining activity at 10 µM: 84.9%
  remaining activity at 30 µM: 63.9%
  remaining activity at 100 µM: 33.3%
-100 mV
  remaining activity at 3 µM: 95.2%
  remaining activity at 10 µM: 86.6%
  remaining activity at 30 µM: 68.3%
  remaining activity at 100 µM: 37.9%
-120 mV
  remaining activity at 3 µM: 95.6%
  remaining activity at 10 µM: 87%
  remaining activity at 30 µM: 71.3%
  remaining activity at 100 µM: 41.7%
-140 mV
  remaining activity at 3 µM: 94.5%
  remaining activity at 10 µM: 87.7%
  remaining activity at 30 µM: 72.9%
  remaining activity at 100 µM: 44.8%
20 mV, 2 µM Ca2+
  IC50: 16.4 µM
40 mV, 2 µM Ca2+
  IC50: 12.8 µM
60 mV, 2 µM Ca2+
  IC50: 10.4 µM
80 mV, 2 µM Ca2+
  IC50: 8.67 µM
100 mV, 2 µM Ca2+
  IC50: 7.86 µM
120 mV, 2 µM Ca2+
  IC50: 7.49 µM
140 mV, 2 µM Ca2+
  IC50: 7.71 µM
-20 mV, 2 µM Ca2+
  IC50: 26.3 µM
-40 mV, 2 µM Ca2+
  IC50: 33.3 µM
-60 mV, 2 µM Ca2+
  IC50: 42.3 µM
-80 mV, 2 µM Ca2+
  IC50: 52.4 µM
-100 mV, 2 µM Ca2+
  IC50: 62.9 µM
-120 mV, 2 µM Ca2+
  IC50: 72.1 µM
-140 mV, 2 µM Ca2+
  IC50: 79.5 µM
V511A, V 0 mV
  IC50: 20.8 µM
V511A, V 20 mV
  IC50: 16.4 µM
V511A, V 40 mV
  IC50: 12.8 µM
V511A, V 60 mV
  IC50: 10.4 µM
V511A, V 80 mV
  IC50: 8.67 µM
V511A, V 100 mV
  IC50: 7.86 µM
V511A, V 120 mV
  IC50: 7.49 µM
V511A, V 140 mV
  IC50: 7.71 µM
V511A, V -20 mV
  IC50: 26.3 µM
V511A, V -40 mV
  IC50: 33.3 µM
V511A, V -60 mV
  IC50: 42.3 µM
V511A, V -80 mV
  IC50: 52.4 µM
V511A, V -100 mV
  IC50: 62.9 µM
V511A, V -120 mV
  IC50: 72.1 µM
V511A, V -140 mV
  IC50: 79.5 µM
